By IC50 is commonly meant the concentration at which inhibition is half-maximal.

Experimental findings from patent US20240262806A1, “INHIBITORS OF NLRP3” (PTC THERAPEUTICS, INC., priority 2021, published 2024) are described below.

This experiment deals with NLRP3 inflammasome. The experiment is described as follows: IL-1β Secretion Assay (NLRP3-dependent IL-1β secretion in PMA-differentiated THP-1 cells, nigericin activation, HTRF). It is filed as cell-based. To be noted: Homo sapiens, THP-1, THP-1 cells, 100 ng/mL PMA 24 h, compound 20 h, 2.5 μM Nigericin 3 h; read-out: IC50 IL-1β Inhibition. The method, boiled down:
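IL-1β release, quantified by HTRF after nigericin activation of the NLRP3 inflammasome, was the read-out. A logistic fit of percent inhibition gave IC50.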
A general note: In TR-FRET formats the signal depends on donor and acceptor labels being close together.
Regarding `[2H]C([2H])([2H])Oc1ccc(-c2nnc(N[C@@H]3CCCN(C)C3)n3cccc23)c(O)c1` [Compound I-501, (R)-5-(Methoxy-d3)-2-(4-((1-methylpiperidin-3-yl)amino)pyrrolo[1,2-d][1,2,4]triazin-1-yl)phenol], the half-inhibitory concentration (IC50) is below 1 nM.
Under `COc1cc(O)c(-c2nnc(N[C@@H]3C[C@@H](F)CN(C)C3)n3cccc23)c(F)c1` [Compound I-502] stands below 1 nM; under `CN1CCC[C@@H](Nc2nnc(-c3ccc(Br)cc3OC(F)(F)F)c3cccn23)C1` [Compound I-504], below 1 nM; under `CCN1CCC[C@@H](Nc2nnc(-c3ccc(Cl)cc3C(F)F)c3cccn23)C1` [Compound I-505], 10 to 100 nM.
Under `OCCN1CCC[C@@H](Nc2nnc(-c3ccc(Cl)cc3C(F)F)c3cccn23)C1` [Compound I-506] stands 10 to 100 nM; under `CN1C[C@H](F)C[C@@H](Nc2nnc(-c3ccc(C4CC4)cc3C(F)F)c3cccn23)C1` [Compound I-507], 10 to 100 nM.
Under `CCN1CCC[C@@H](Nc2nnc(-c3ccc(C4CC4)cc3C(F)F)c3cccn23)C1` [Compound I-508] stands 1 to 10 nM; under `OCCN1CCC[C@@H](Nc2nnc(-c3ccc(C4CC4)cc3C(F)F)c3cccn23)C1` [Compound I-509], 1 to 10 nM.
In the case of `Oc1cc(C2CC2)cc(F)c1-c1nnc(N[C@@H]2CCCN(CC(F)F)C2)n2cccc12` [Compound I-510], the IC50 lay in the range of 10 to 100 nM.
Under `Cc1cc(O)c(-c2nnc(N[C@@H]3CCCN(CC(F)F)C3)n3cccc23)c(F)c1` [Compound I-511] stands 1 to 10 nM.
Under `[2H]C([2H])([2H])Oc1cc(O)c(-c2nnc(N[C@@H]3CCCN(C)C3)n3cccc23)c(F)c1` [Compound I-513] stands below 1 nM.
Under `[2H]C([2H])([2H])Oc1cc(O)c(-c2nnc(N[C@@H]3CCCN(CC)C3)n3cccc23)c(F)c1` [Compound I-514, (R)-2-(4-((1-ethylpiperidin-3-yl)amino)pyrrolo[1,2-d][1,2,4]triazin-1-yl)-3-fluoro-5-(methoxy-d3)phenol] stands below 1 nM; under `CCN1CCC[C@@H](Nc2nnc(-c3c(O)cc(C)cc3F)c3cc(C)nn23)C1` [Compound I-515], below 1 nM; under `FC(F)(F)c1ccc(-c2nnc(N[C@@H]3CCCN(C4CCOCC4)C3)n3cccc23)c(C(F)(F)F)c1` [Compound I-516], 1 to 10 nM.
Regarding `FC(F)(F)c1ccc(-c2nnc(N[C@@H]3CCCN(C4CCOC4)C3)n3cccc23)c(C(F)(F)F)c1` (some centres unmarked) [Compound I-517], the IC50 was 1 to 10 nM.
Under `Oc1cc(Cl)ccc1-c1nnc(N[C@@H]2CCCOC2)n2cncc12` [Compound I-518, (R)-5-Chloro-2-(4-((tetrahydro-2H-pyran-3-yl)amino)imidazo[1,5-d][1,2,4]triazin-1-yl)phenol] stands 1 to 10 nM.
In the case of `CN1CCC[C@@H](Nc2nnc(-c3ccc(OC(F)(F)F)cc3OC(F)F)c3cccn23)C1` [Compound I-519], the IC50 is 1 to 10 nM.
Under `OCCN1CCC[C@@H](Nc2nnc(-c3ccc(OC(F)(F)F)cc3OC(F)F)c3cccn23)C1` [Compound I-520] stands 1 to 10 nM; under `CN1C[C@H](F)C[C@@H](Nc2nnc(-c3ccc(OC(F)(F)F)cc3OC(F)F)c3cccn23)C1` [Compound I-521], 1 to 10 nM.
Under `C[C@]1(O)C[C@@H](Nc2nnc(-c3ccc(OC(F)(F)F)cc3OC(F)F)c3cccn23)C1` [Compound I-522] stands 10 to 100 nM; under `C[C@]1(O)C[C@@H](Nc2nnc(-c3ccc(OC(F)(F)F)cc3O)c3cccn23)C1` [Compound I-523], 10 to 100 nM; under `O[C@H]1CCC[C@@H](Nc2nnc(-c3ccc(C(F)(F)F)cc3OC(F)F)c3c(F)ccn23)C1` [Compound I-524], 10 to 100 nM.
Consider `C[C@]1(O)C[C@@H](Nc2nnc(-c3ccc(C(F)(F)F)cc3OC(F)F)c3c(F)ccn23)C1` [Compound I-525], for which the IC50 was in the range of 10 to 100 nM.
Under `Oc1cc(C(F)(F)F)ccc1-c1nnc(N[C@@H]2CCC[C@H](O)C2)n2ccc(F)c12` [Compound I-526] stands 10 to 100 nM; under `C[C@]1(O)C[C@@H](Nc2nnc(-c3ccc(C(F)(F)F)cc3O)c3cncn23)C1` [Compound I-527], 1 to 10 nM; under `CN1C[C@H](F)C[C@@H](Nc2nnc(-c3ccc(C(F)(F)F)cc3O)c3cncn23)C1` [Compound I-528], below 1 nM.
Under `OCCN1CCC[C@@H](Nc2nnc(-c3ccc(Br)cc3O)c3cccn23)C1` [Compound I-529] stands 1 to 10 nM; under `CC(C)N1CCC[C@@H](Nc2nnc(-c3ccc(C(F)(F)F)cc3C(F)(F)F)c3cccn23)C1` [Compound I-530], below 1 nM.
Under `CC(C)(O)CNc1nnc(-c2ccc(C(F)(F)F)cc2C(F)(F)F)c2cccn12` [Compound I-531] stands 10 to 100 nM; under `C[C@]1(O)C[C@@H](Nc2nnc(-c3ccc(C(F)(F)F)cc3C(F)(F)F)c3cccn23)C1` [Compound I-532], 1 to 10 nM; under `Cc1ccc(-c2nnc(N[C@@H]3CCCN(C)C3)n3cccc23)c(C(F)(F)F)c1` [Compound I-533], 1 to 10 nM.
`CN1CCC[C@@H](Nc2nnc(-c3ccc(C4CC4)cc3C(F)(F)F)c3cccn23)C1` [Compound I-534]: the IC50 is below 1 nM.
Turning to `CCN1C[C@H](F)C[C@@H](Nc2nnc(-c3ccc(C(F)(F)F)cc3C(F)(F)F)c3cccn23)C1` [Compound I-535], the IC50 was 1 to 10 nM.
Under `CC(C)(O)CNc1nnc(-c2ccc(C(F)(F)F)cc2OC(F)F)c2cccn12` [Compound I-536] stands 10 to 100 nM; under `C[C@]1(O)C[C@@H](Nc2nnc(-c3ccc(C(F)(F)F)cc3OC(F)F)c3cccn23)C1` [Compound I-537], 1 to 10 nM; under `CCN1C[C@H](F)C[C@@H](Nc2nnc(-c3ccc(C(F)(F)F)cc3OC(F)F)c3cccn23)C1` [Compound I-538], 1 to 10 nM.
Under `Cc1cc(O)c(-c2nnc(NCC(C)(C)O)n3cccc23)c(F)c1` [Compound I-539] stands 1 to 10 nM; under `CC(C)(O)CNc1nnc(-c2c(O)cc(C3CC3)cc2F)c2cccn12` [Compound I-540], 10 to 100 nM; under `CN(C)C1CCC[C@@H](Nc2nnc(-c3c(O)cc(C4CC4)cc3F)c3cccn23)C1` (some centres unmarked) [Compound I-541], below 1 nM.
As to `Cc1ncc2c(-c3ccc(C(F)(F)F)cc3O)nnc(N[C@@H]3CCCN(C)C3)n12` [Compound I-543, (R)-2-(6-Methyl-4-((1-methylpiperidin-3-yl)amino)imidazo[1,5-d][1,2,4]triazin-1-yl)-5-(trifluoromethyl)phenol], the IC50 is below 1 nM.
`C[C@]1(O)C[C@@H](Nc2nnc(-c3ccc(Br)cc3O)c3ccnn23)C1` [Compound I-544]: the IC50 fell in the range of 1 to 10 nM.
`CN1CCC[C@@H](Nc2nnc(-c3ccc(Br)cc3OCc3ccccc3)c3ccnn23)C1` [Compound I-545]: the IC50 was in the range of 10 to 100 nM.
Under `CN1C[C@H](F)C[C@@H](Nc2nnc(-c3ccc(Br)cc3O)c3ccnn23)C1` [Compound I-546, 5-Bromo-2-(7-(((3R,5R)-5-fluoro-1-methylpiperidin-3-yl)amino)pyrazolo[1,5-d][1,2,4]triazin-4-yl)phenol] stands 1 to 10 nM.
Under `Oc1cc(Br)ccc1-c1nnc(N[C@@H]2CCCOC2)n2nccc12` [Compound I-547] stands 10 to 100 nM.
Under `Oc1cc(Br)ccc1-c1nnc(N[C@@H]2CCCN(CC(F)F)C2)n2nccc12` [Compound I-548] stands 1 to 10 nM; under `C[C@]1(O)C[C@@H](Nc2nnc(-c3ccc(Cl)cc3O)c3cncn23)C1` [Compound I-549], 1 to 10 nM.
Turning to `COc1cc(O)c(-c2nnc(N[C@@H]3CCCN(C)C3)n3nc(C)cc23)c(F)c1` [Compound I-551], the IC50 was below 1 nM.
Under `CC(CO)N1CCC[C@H](Nc2nnc(-c3ccc(Br)cc3O)c3cccn23)C1` (some centres unmarked) [Compound I-552] stands 1 to 10 nM.
For `CC(C)N1CCC[C@H](Nc2nnc(-c3ccc(Cl)cc3O)c3cncn23)C1` [Compound I-553], the IC50 was below 1 nM.
Under `CCN1CCC[C@H](Nc2nnc(-c3c(O)cc(C4CC4)cc3F)c3cc(C)nn23)C1` [Compound I-554] stands below 1 nM; under `CCN1CCC[C@@H](Nc2nnc(-c3c(O)cc(OC)cc3F)c3cc(C)nn23)C1` [Compound I-555], below 1 nM.
Consider `CCN1CCC[C@@H](Nc2nnc(-c3ccc(C(F)(F)F)cc3OC(F)F)c3cc(C)nn23)C1` [Compound I-556], for which the IC50 lay within 1 to 10 nM.
Regarding `CN1C[C@H](F)C[C@@H](Nc2nnc(-c3ccc(Cl)cc3O)c3cncn23)C1` [Compound I-557], the IC50 was in the range of 1 to 10 nM.
Under `Oc1cc(Cl)ccc1-c1nnc(N[C@@H]2CCCN(CC(F)(F)F)C2)n2cncc12` [Compound I-558] stands 1 to 10 nM; under `Oc1cc(Cl)ccc1-c1nnc(N[C@@H]2CCCN(CC(F)F)C2)n2cncc12` [Compound I-559], 1 to 10 nM; under `Cc1cc2c(-c3c(C)cc(C(F)(F)F)cc3O)nnc(N[C@@H]3CCCN(C)C3)n2n1` [Compound I-560], 1 to 10 nM.
Under `Oc1cc(Cl)ccc1-c1nnc(N[C@@H]2CCOC2)n2cncc12` [Compound I-561] stands 1 to 10 nM; under `COc1cc(O)c(-c2nnc(N[C@H]3C[C@@](C)(O)C3)n3cccc23)c(F)c1` [Compound I-562], 1 to 10 nM.
Under `CCc1cc(O)c(-c2nnc(N[C@@H]3CCCN(C)C3)n3cccc23)c(F)c1` [Compound I-563] stands below 1 nM; under `CCN1CCC[C@@H](Nc2nnc(-c3ccc(Br)cc3O)c3cccn23)C1` [Compound I-564], below 1 nM.
For `CCN1CCC[C@@H](Nc2nnc(-c3ccc(OC(F)(F)F)cc3OC(F)F)c3cccn23)C1` [Compound I-565], the IC50 lay in the range of 1 to 10 nM.
On to `CCN1CCC[C@@H](Nc2nnc(-c3ccc(C(F)(F)F)cc3OC(F)F)c3c(F)ccn23)C1` [Compound I-566], for which the IC50 fell in the range of 1 to 10 nM.
